Measurements taken from patent US9944602B2, “Piperidinone herbicides” (E. I. DU PONT DE NEMOURS AND COMPANY, priority 2014, dated 2018).

Tests used:
Format in all cases: in vivo
[1] = system: galium (catchweed bedstraw, Galium aparine); experiment: Test A postemergence galium; settings: 0 to 100 scale, 0 is no effect, 100 is complete control
Outline: (§1)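 Injury was scored by eye on a 0 to 100 scale after about 10 days in the greenhouse, with 100 meaning complete control. Preemergence treatment was a directed spray onto soil over seeds; postemergence treatment went onto one- to two-leaf plants 2–10 cm tall.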

[2] = system: ducksalad (Heteranthera limosa); experiment: Test B flooded paddy test ducksalad; settings: Table B, Flood, 500 g ai/ha, scale 0 to 100
Outline: (§2)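 Water-applied paddy treatment: compound dosed into 3 cm flood on 2-leaf plants, read visually versus controls after 13 to 15 d.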

[3] = system: ryegrass, Italian (Italian ryegrass, Lolium multiflorum); experiment: Test A postemergence ryegrass, Italian; settings: 0 to 100 scale, 0 is no effect, 100 is complete control
Outline: as §1

[4] = system: barnyardgrass (Echinochloa crus-galli); experiment: Test B flooded paddy test barnyardgrass; settings: Table B, Flood, 500 g ai/ha, scale 0 to 100
Outline: as §2

[5] = system: rice (Oryza sativa); experiment: Test B flooded paddy test rice; settings: Table B, Flood, 500 g ai/ha, scale 0 to 100
Outline: as §2

[6] = system: ragweed (common ragweed, Ambrosia elatior); experiment: Test A preemergence ragweed; settings: 0 to 100 scale, 0 no effect, 100 complete control
Outline: as §1

[7] = system: corn (Zea mays); experiment: Test A postemergence corn; settings: 0 to 100 scale, 0 is no effect, 100 is complete control
Outline: as §1

[8] = system: barnyardgrass (Echinochloa crus-galli); experiment: Test A postemergence barnyardgrass; settings: 0 to 100 scale, 0 is no effect, 100 is complete control
Outline: as §1

[9] = system: kochia (Kochia scoparia); experiment: Test A preemergence kochia; settings: 0 to 100 scale, 0 no effect, 100 complete control
Outline: as §1

[10] = system: barnyardgrass (Echinochloa crus-galli); experiment: Test C flooded paddy test barnyardgrass; settings: Table C, Flood, scale 0 to 100
Source text: (§3) Plant species in the flooded paddy test consisted of rice (Oryza sativa), sedge, umbrella (small-flower umbrella sedge, Cyperus difformis), ducksalad (Heteranthera limosa), and barnyardgrass (Echinochloa crus-galli) grown to the 2-leaf stage for testing. At time of treatment, test pots were flooded to 3 cm above the soil surface, treated by application of test compounds directly to the paddy water, and then maintained at that water depth for the duration of the test. Treated plants and controls were maintained in a greenhouse for 13 to 15 d, after which time all species were compared to controls and visually evaluated. Plant response ratings, summarized in Table C, are based on a scale of 0 to 100 where 0 is no effect and 100 is complete control. A dash (-) response means no test result.

[11] = system: sedge, umbrella (small-flower umbrella sedge, Cyperus difformis); experiment: Test B flooded paddy test sedge, umbrella; settings: Table B, Flood, 500 g ai/ha, scale 0 to 100
Outline: as §2

[12] = system: barnyardgrass (Echinochloa crus-galli); experiment: Test A preemergence barnyardgrass; settings: 0 to 100 scale, 0 no effect, 100 complete control
Outline: as §1

[13] = system: wheat (Triticum aestivum); experiment: Test A postemergence wheat; settings: 0 to 100 scale, 0 is no effect, 100 is complete control
Outline: as §1

[14] = system: foxtail, giant (giant foxtail, Setaria faberii); experiment: Test A preemergence foxtail, giant; settings: 0 to 100 scale, 0 no effect, 100 complete control
Outline: as §1

[15] = system: blackgrass (Alopecurus myosuroides); experiment: Test A postemergence blackgrass; settings: 0 to 100 scale, 0 is no effect, 100 is complete control
Outline: as §1

[16] = system: sedge, umbrella (small-flower umbrella sedge, Cyperus difformis); experiment: Test C flooded paddy test sedge, umbrella; settings: Table C, Flood, scale 0 to 100
Source text: as §3

[17] = system: ducksalad (Heteranthera limosa); experiment: Test C flooded paddy test ducksalad; settings: Table C, Flood, scale 0 to 100
Source text: as §3

[18] = system: foxtail, giant (giant foxtail, Setaria faberii); experiment: Test A postemergence foxtail, giant; settings: 0 to 100 scale, 0 is no effect, 100 is complete control
Outline: as §1

[19] = system: ryegrass, Italian (Italian ryegrass, Lolium multiflorum); experiment: Test A preemergence ryegrass, Italian; settings: 0 to 100 scale, 0 no effect, 100 complete control
Outline: as §1

[20] = system: pigweed (Amaranthus retroflexus); experiment: Test A preemergence pigweed; settings: 0 to 100 scale, 0 no effect, 100 complete control
Outline: as §1

[21] = system: kochia (Kochia scoparia); experiment: Test A postemergence kochia; settings: 0 to 100 scale, 0 is no effect, 100 is complete control
Outline: as §1

[22] = system: ragweed (common ragweed, Ambrosia elatior); experiment: Test A postemergence ragweed; settings: 0 to 100 scale, 0 is no effect, 100 is complete control
Outline: as §1

[23] = system: rice (Oryza sativa); experiment: Test C flooded paddy test rice; settings: Table C, Flood, scale 0 to 100
Source text: as §3

[24] = system: pigweed (Amaranthus retroflexus); experiment: Test A postemergence pigweed; settings: 0 to 100 scale, 0 is no effect, 100 is complete control
Outline: as §1

**Q.** Which results are given for `O=C1NCCC(c2cccc(C(F)(F)F)c2)C1C(=O)Nc1cccc(F)c1Cl` (racemic) [Compound 19]?
**A.** Plant response rating, Galium ([1]; 125 g ai/ha): 20; Plant response rating, Galium ([1]; 500 g ai/ha): 20; Plant response rating [2]: 60; Plant response rating, Ryegrass, Italian ([3]; 125 g ai/ha): 0; Plant response rating, Ryegrass, Italian ([3]; 500 g ai/ha): 20; Plant response rating [4]: 60; Plant response rating [5]: 0; Ragweed plant response rating ([6]; 125 g ai/ha): 0; Ragweed plant response rating ([6]; 500 g ai/ha): 20; Plant response rating, Corn ([7]; 125 g ai/ha): 0; Plant response rating, Corn ([7]; 500 g ai/ha): 50; Plant response rating, Barnyardgrass ([8]; 125 g ai/ha): 60; Plant response rating, Barnyardgrass ([8]; 500 g ai/ha): 80; Kochia plant response rating ([9]; 125 g ai/ha): 0; Kochia plant response rating ([9]; 500 g ai/ha): 20; Plant response rating ([10]; 31 g ai/ha): 0; Plant response rating ([10]; 62 g ai/ha): 0; Plant response rating ([10]; 125 g ai/ha): 0; Plant response rating ([10]; 250 g ai/ha): 0; Plant response rating [11]: 0; Barnyardgrass plant response rating ([12]; 125 g ai/ha): 70; Barnyardgrass plant response rating ([12]; 500 g ai/ha): 80; Plant response rating, Wheat ([13]; 125 g ai/ha): 0; Plant response rating, Wheat ([13]; 500 g ai/ha): 30; Foxtail, Giant plant response rating ([14]; 125 g ai/ha): 80; Foxtail, Giant plant response rating ([14]; 500 g ai/ha): 90; Plant response rating, Blackgrass ([15]; 125 g ai/ha): 40; Plant response rating, Blackgrass ([15]; 500 g ai/ha): 50; Plant response rating ([16]; 31 g ai/ha): 0; Plant response rating ([16]; 62 g ai/ha): 0; Plant response rating ([16]; 125 g ai/ha): 0; Plant response rating ([16]; 250 g ai/ha): 0; Plant response rating ([17]; 31 g ai/ha): 0; Plant response rating ([17]; 62 g ai/ha): 0; Plant response rating ([17]; 125 g ai/ha): 0; Plant response rating ([17]; 250 g ai/ha): 0; Plant response rating, Foxtail, Giant ([18]; 125 g ai/ha): 70; Plant response rating, Foxtail, Giant ([18]; 500 g ai/ha): 80; Ryegrass, Italian plant response rating ([19]; 125 g ai/ha): 20; Ryegrass, Italian plant response rating ([19]; 500 g ai/ha): 30; Pigweed plant response rating ([20]; 125 g ai/ha): 0; Pigweed plant response rating ([20]; 500 g ai/ha): 0; Plant response rating, Kochia ([21]; 125 g ai/ha): 0; Plant response rating, Kochia ([21]; 500 g ai/ha): 20; Plant response rating, Ragweed ([22]; 125 g ai/ha): 0; Plant response rating, Ragweed ([22]; 500 g ai/ha): 0; Plant response rating ([23]; 31 g ai/ha): 0; Plant response rating ([23]; 62 g ai/ha): 0; Plant response rating ([23]; 125 g ai/ha): 0; Plant response rating ([23]; 250 g ai/ha): 0; Plant response rating, Pigweed ([24]; 125 g ai/ha): 0; Plant response rating, Pigweed ([24]; 500 g ai/ha): 0
